# Read-outs that look alike come from different tables or passages of the source.
# How the values were obtained:
# [1] = tested on: Escherichia coli K-12 AG100, its Mar mutant AG112 and derived fluoroquinolone-resistant mutants (acrAB+); test: MIC by broth microdilution, acrAB+ strains; type: cell-based; conditions: for MIC: Escherichia coli; for Ofx MIC: with AcrAB
# Procedure: Selection of fluoroquinolone-resistant mutants. 1-AG100, 2°-AG100, 3*-AG100, 4*-AG100 and 1′-AG112, 2′-AG112, 3′-AG112 were sequential step mutants derived from AG 100 and AG112, respectively, on solid media. For each step, about 10^11 cells of an overnight culture were plated on several LB agar plates supplemented with increasing concentrations of OFL. Single colonies were further purified on OFL-supplemented agar plates. Mutant 2°-AG100 came out of one series, while mutants 3*- and 4*-AG100 came from a second series.
# (§1) Susceptibility testing. MICs of selected antimicrobial agents were determined by a standard broth microdilution procedure with cation-adjusted Mueller-Hinton broth (Becton Dickinson, Cockeysville, Md.) and an inoculum of 5×10^5 CFU/ml according to NCCLS performance and interpretive guidelines (NCCLS. 1997. Methods for dilution antimicrobial susceptibility. Tests for bacteria that grow aerobically—Fourth Edition; Approved Standard. NCCLS document M7-A4 (ISBN 1-56238-309-4). NCCLS, 940 West Valley Road, Suite 1400, Wayne, Pa. 19087). Antimicrobial agents on the commercially available microtiter plates (Merlin Diagnostics GmbH, Bornheim, Germany) included the FQs ciprofloxacin (CIP), enoxacin, fleroxacin, nor-flo-xacin, ofloxacin (OFL), pefloxacin, sparfloxacin (SPX), and trovafloxacin (TVA). They also included tetracycline (TET), chloramphenicol (CML), trimethoprim (TMP), cefoxitin (CFOX), cefaclor, cefixim and loracarbef. MICs of bile salts were determined by a broth macrodilution procedure: sodium cholate and sodium deoxycholate were serially diluted twofold in LB broth and tubes inoculated at 5×10^5 CFU/ml. MICs of both antibiotics and bile salts were determined twice in independent experiments with reproducible results.
# [2] = tested on: Escherichia coli AG100, AG112 and derived fluoroquinolone-resistant mutants with ΔacrAB; test: MIC by broth microdilution, AcrAB-deleted strains; type: cell-based; conditions: for MIC: Escherichia coli; for Ofx MIC: AcrAB knocked out
# Procedure: as §1
# P1 transduction. […] DNA sequencing.
# [3] = tested on: Escherichia coli K-12 AG100, AG112 and derived fluoroquinolone-resistant mutants (wild-type acrAB); conditions: whole energized cells
# [4] = tested on: Escherichia coli AG100, AG112 and derived mutants bearing ΔacrAB; conditions: all strains, energized cells
# [5] = tested on: Escherichia coli K-12 AG100, its Mar mutant AG112 and derived fluoroquinolone-resistant mutants (acrAB+); test: MIC by broth microdilution, acrAB+ strains; type: cell-based
# [6] = strain 1-AG100, acrAB+, read-out: MIC
# [7] = strain 1-AG112 (1′-AG112), acrAB+, read-out: MIC
# [8] = strain 2-AG100 (2°-AG100), acrAB+, read-out: MIC
# [9] = strain 2-AG112 (2′-AG112), acrAB+, read-out: MIC
# [10] = strain 3*-AG100, acrAB+, read-out: MIC
# [11] = strain 3-AG112 (3′-AG112), acrAB+, read-out: MIC
# [12] = strain 4*-AG100, acrAB+, read-out: MIC
# [13] = strain AG100, acrAB+, read-out: MIC
# [14] = strain AG112 (Mar mutant), acrAB+
# [15] = strain 1-AG112 (1′-AG112), ΔacrAB
# [16] = strain 2-AG100 (2°-AG100), ΔacrAB
# [17] = strain 2-AG112 (2′-AG112), ΔacrAB
# [18] = strain 3-AG112 (3′-AG112), ΔacrAB
structure (smiles),measurement,setting,value
"CO[C@@]1(NC(=O)Cc2cccs2)C(=O)N2C(C(=O)O)=C(COC(N)=O)CS[C@@H]21 [CFOX, cefoxitin]",MIC,[1]; [6],4 µg/mL
same,MIC,[1]; [7],16 µg/mL
same,MIC,[1]; [8],16 µg/mL
same,MIC,[1]; [9],32 µg/mL
same,MIC,[1]; [10],32 µg/mL
same,MIC,[1]; [11],64 µg/mL
same,MIC,[1]; [12],32 µg/mL
same,MIC,[1]; [13],4 µg/mL
same,MIC,[1]; [14],32 µg/mL
same,MIC,"[2]; strain 1-AG100, ΔacrAB",0.5 µg/mL
same,MIC,[2]; [15],1 µg/mL
same,MIC,[2]; [16],0.5 µg/mL
same,MIC,[2]; [17],0.5 µg/mL
same,MIC,"[2]; strain 3*-AG100, ΔacrAB",0.5 µg/mL
same,MIC,[2]; [18],0.5 µg/mL
same,MIC,"[2]; strain 4*-AG100, ΔacrAB",1 µg/mL
same,MIC,"[2]; strain AG100, ΔacrAB",0.5 µg/mL
same,MIC,"[2]; strain AG112, ΔacrAB",1 µg/mL
"O=C(O)c1cn(C2CC2)c2cc(N3CCNCC3)c(F)cc2c1=O [CIP, ciprofloxacin]",MIC,[1]; [6],0.25 µg/mL
same,MIC,[1]; [7],0.5 µg/mL
same,MIC,"[1]; strain 2-AG100 (2°-AG100), acrAB+",0.5 µg/mL
same,MIC,[1]; [9],2 µg/mL
same,MIC,[1]; [10],1 µg/mL
same,MIC,[1]; [11],4 µg/mL
same,MIC,[1]; [12],2 µg/mL
same,MIC,[1]; [13],≤ 0.015 µg/mL
same,MIC,[1]; [14],0.06 µg/mL
same,MIC,"[2]; strain 1-AG100, ΔacrAB",0.06 µg/mL
same,MIC,[2]; [15],0.03 µg/mL
same,MIC,[2]; [16],0.06 µg/mL
same,MIC,[2]; [17],0.03 µg/mL
same,MIC,"[2]; strain 3*-AG100, ΔacrAB",0.06 µg/mL
same,MIC,[2]; [18],0.03 µg/mL
same,MIC,"[2]; strain 4*-AG100, ΔacrAB",0.125 µg/mL
same,MIC,"[2]; strain AG100, ΔacrAB",≤ 0.015 µg/mL
same,MIC,"[2]; strain AG112, ΔacrAB",≤ 0.015 µg/mL
same,Time at which CIP accumulation reached a plateau,[3],≤ 5 min
same,Active efflux of ciprofloxacin upon deletion of AcrAB,[4],completely aborted
same,Active efflux of ciprofloxacin upon deletion of AcrAB,[4]; listed as cfx,completely abolished
"O=C(N[C@H](CO)[C@H](O)c1ccc([N+](=O)[O-])cc1)C(Cl)Cl [CML, chloramphenicol]",MIC,[1]; [6],4 µg/mL
same,MIC,[1]; [7],32 µg/mL
same,MIC,[1]; [8],16 µg/mL
same,MIC,[1]; [9],64 µg/mL
same,MIC,[1]; [10],32 µg/mL
same,MIC,[1]; [11],64 µg/mL
same,MIC,[1]; [12],64 µg/mL
same,MIC,[1]; [13],4 µg/mL
same,MIC,[1]; [14],16 µg/mL
same,MIC,"[2]; strain 1-AG100, ΔacrAB",1 µg/mL
same,MIC,[2]; [15],1 µg/mL
same,MIC,[2]; [16],1 µg/mL
same,MIC,[2]; [17],1 µg/mL
same,MIC,"[2]; strain 3*-AG100, ΔacrAB",1 µg/mL
same,MIC,[2]; [18],1 µg/mL
same,MIC,"[2]; strain 4*-AG100, ΔacrAB",1 µg/mL
same,MIC,"[2]; strain AG100, ΔacrAB",1 µg/mL
same,MIC,"[2]; strain AG112, ΔacrAB",1 µg/mL
"CC1COc2c(N3CCN(C)CC3)c(F)cc3c(=O)c(C(=O)O)cn1c23 (centres unmarked) [OFL, ofloxacin]",Enhancement of ofx resistance by in-vitro amplification,"[1]; AG100, four steps, 0.03 mg/l to 4 mg/l",128 fold
same,Ofx MIC,"[1]; AG100 series, 1st step mutant",0.25 mg/L
same,Ofx MIC,"[1]; AG100 series, 2nd step mutant",1.0 mg/L
same,Ofx MIC,"[1]; AG100 series, 3rd step mutant",2.0 mg/L
same,Ofx MIC,"[1]; AG100 series, 4th step mutant",4.0 mg/L
same,Ofx MIC,"[1]; AG100 series, parent",0.03 mg/L
same,Ofx MIC,"[1]; AG102 series, 2nd step mutant",4.0 mg/L
same,Ofx MIC,"[1]; AG102 series, 3rd step mutant",8.0 mg/L
same,Ofx MIC,"[1]; AG102 series, parent (Mar mutant)",0.125 mg/L
same,MIC,[1]; [6],0.25 µg/mL
same,MIC,[1]; [7],1 µg/mL
same,MIC,[1]; [8],1 µg/mL
same,MIC,[1]; [9],4 µg/mL
same,MIC,[1]; [10],2 µg/mL
same,MIC,[1]; [11],8 µg/mL
same,MIC,[1]; [12],4 µg/mL
same,MIC,[1]; [13],0.03 µg/mL
same,MIC,[1]; [14],0.125 µg/mL
same,Fold increase of OFL MIC,"[1]; strain 1-AG100, as compared to AG100 (wild-type)",8 fold
same,Fold increase of OFL MIC,"[1]; strain 1-AG112 (1′-AG112), as compared to AG100 (wild-type)",32 fold
same,Fold increase of OFL MIC,"[1]; strain 2-AG100 (2°-AG100), as compared to AG100 (wild-type)",32 fold
same,Fold increase of OFL MIC,"[1]; strain 2-AG112, as compared to AG100 (wild-type)",128 fold
same,Fold increase of OFL MIC,"[1]; strain 3*-AG100, as compared to AG100 (wild-type)",64 fold
same,Fold increase of OFL MIC,"[1]; strain 3-AG112, as compared to AG100 (wild-type)",256 fold
same,Fold increase of OFL MIC,"[1]; strain 4*-AG100, as compared to AG100 (wild-type)",128 fold
same,Fold increase of OFL MIC,"[1]; strain AG112, as compared to AG100 (wild-type)",4 fold
same,Increase of resistance to OFL by the first mutation step,[1]; {},8 fold
same,Ofx MIC,"[2]; AG100 series, 1st step mutant",0.06 mg/L
same,Ofx MIC,"[2]; AG100 series, 2nd step mutant",0.06 mg/L
same,Ofx MIC,"[2]; AG100 series, 3rd step mutant",0.06 mg/L
same,Ofx MIC,"[2]; AG100 series, 4th step mutant",0.125 mg/L
same,Ofx MIC,"[2]; AG100 series, parent",< 0.015 mg/L
same,Ofx MIC,"[2]; AG102 series, 1st step mutant",0.06 mg/L
same,Ofx MIC,"[2]; AG102 series, 2nd step mutant",0.06 mg/L
same,Ofx MIC,"[2]; AG102 series, 3rd step mutant",0.06 mg/L
same,Ofx MIC,"[2]; AG102 series, parent",< 0.015 mg/L
same,MIC,"[2]; strain 1-AG100, ΔacrAB",0.06 µg/mL
same,MIC,[2]; [15],0.06 µg/mL
same,MIC,[2]; [16],0.06 µg/mL
same,MIC,[2]; [17],0.06 µg/mL
same,MIC,"[2]; strain 3*-AG100, ΔacrAB",0.06 µg/mL
same,MIC,[2]; [18],0.06 µg/mL
same,MIC,"[2]; strain 4*-AG100, ΔacrAB",0.125 µg/mL
same,MIC,"[2]; strain AG100, ΔacrAB",≤ 0.015 µg/mL
same,MIC,"[2]; strain AG112, ΔacrAB",≤ 0.015 µg/mL
same,Enhancement of ofx resistance by in-vitro amplification,"[5]; AG102, three steps, 0.125 mg/l to 8 mg/l",64 fold
same,Ofx MIC,"[5]; AG102 series, 1st step mutant, with AcrAB",1.0 mg/L
